Patent US8946302B2, “Selective sigma-1 receptor ligands” (Wisconsin Alumni Research Foundation, priority 2008, dated 2015)
“And” between values parts separate entries of the source, which are not always exact repeats. Equal entries are not always repeated. Where two headings read alike, the source gives them in different places.

Experiments:
σ-2 Sites = target: T1, σ-2 Sites (Rattus norvegicus, UniProt Q5U3Y7); test: σ-2 sites radioligand binding, rat liver membranes (Table 2)
T1 construct: from tissue
T1 sequence (Q5U3Y7 1-176): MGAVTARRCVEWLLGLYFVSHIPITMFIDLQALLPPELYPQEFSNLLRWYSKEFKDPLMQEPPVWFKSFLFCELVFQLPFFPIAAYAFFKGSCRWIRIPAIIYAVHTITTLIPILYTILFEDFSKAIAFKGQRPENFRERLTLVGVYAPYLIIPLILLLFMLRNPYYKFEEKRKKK
Experimental: (§1) Assays for sigma-1 were performed using 10 nM (+)-[^3H]pentazocine in guinea pig liver homogenates (25 μg/well) incubated at 30° C. for 1 hour with several concentrations of competing ligands. After incubation, membranes were harvested on a 0.5% PEI-treated Whatman GF/B filters using a Brandel Cell Harvester. (+)-[^3H]pentazocine binding was determined by liquid scintillation counting. […] Serial concentrations of the compounds evaluated were added to the reactions for 45 minutes at 30° C. and the samples vacuum filtered through 0.5% polyethyleneimine (PEI) treated Whatman GF/B as described above to measure displacement of the radioligands from the sigma receptor subtypes.

[1] = target: T2, purified sigma-1 receptor (Cavia porcellus, UniProt Q60492); test: Competitive displacement of [3H]-(+)-pentazocine at the pure sigma-1 receptor; assay type: binding, guinea pig; settings: read-out: Ki Pure σ-1R
T2 construct: made in house; host or cells: E. coli BL21 DE3
T2 sequence (Q60492 whole entry): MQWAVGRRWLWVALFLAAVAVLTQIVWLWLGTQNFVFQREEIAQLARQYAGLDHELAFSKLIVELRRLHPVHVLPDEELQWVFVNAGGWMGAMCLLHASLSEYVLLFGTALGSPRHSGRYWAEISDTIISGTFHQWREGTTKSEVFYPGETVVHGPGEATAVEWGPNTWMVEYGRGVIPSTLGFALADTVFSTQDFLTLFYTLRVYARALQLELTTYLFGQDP
Experimental: A guinea pig sigma-1 receptor was purified as previously described (Ramachandran et al., Protein Expr. Purif., 2007. 51(2): 283-92). The pMal P2X plasmid (New England Biolabs) encoding the guinea pig sigma-1 receptor on the C-terminus of the E. coli Maltose Binding Protein was used for purification. The sigma-1 receptor on its C-terminus carried a hexa-histadine epitope tag. Protein was expressed in the E. coli strain BL21 DE3 (Novagen) with 0.6 mM IPTG. The E. coli pellet was sonicated and centrifuged at 100,000 g for 1 hour to separate the particulate and soluble fractions. The particulate fraction was extracted with Triton X-100, centrifuged and the extract was loaded onto an amylose resin (New England Biolabs, E-802). After washing the resin with buffer containing 0.5% Triton X-100, the MBP-sigma-1 receptor fusion protein was eluted with buffer containing 10 mM maltose.
The MBP-sigma-1-receptor fusion protein was cleaved with Factor Xa protease (Novagen) at room temperature for 24-48 hours and the cleavage was monitored with SDS-polyacrylamide gel electrophoresis. The sigma-1 receptor from the Factor Xa cleavage was purified with a HIS-Select HC Nickel affinity gel (Sigma-Aldrich P6611) in a batch format. The resin was washed with buffer containing 0.5% Triton X-100 detergent and the beads were separated by a brief centrifugation at 4000 rpm in a microcentrifuge. After washing to remove MBP, the pure sigma-1 receptor was eluted in buffer containing 250 mM imidazole.
To remove the undigested MBP-sigma-1 receptor fusion protein that is carried over in the Ni^2+ purification, the eluate from the Ni^2+ purification was incubated with Anti-MBP antibody conjugated to agarose (Vector Laboratories, Burlingame, Calif.) at 4° C. for 18-24 hours. The beads were separated by centrifugation and the supernatant contained the pure sigma-1 receptor.
Competition ligand binding to the pure sigma-1 receptor was performed as previously described. […] After incubation at 30° C. for 60 minutes, the reaction was terminated by rapid filtration through glass fiber filters (Whatman GF/B), using a Brandel cell harvester (Brandel, Gaithersburg, Md.). The glass fiber filters were pre-soaked in 0.5% polyethyleneimine (PEI) for at least 1 hour at room temperature (˜23° C.). Filters were washed 4 times with 4 mL of ice-cold 50 mM Tris-C1, pH 8.0. Radioactivity was quantified by liquid scintillation counting using a Packard model 1600 CA scintillation counter.

σ-1 Sites = target: T3, σ-1 Sites (Cavia porcellus, UniProt Q60492); test: σ-1 sites radioligand binding, guinea pig liver membranes (Table 2); settings: for Ki: guinea pig liver membranes; for σ-1 selectivity σ-2 Ki/σ-1 Ki: σ-2 rat liver / σ-1 guinea pig liver membranes
T3 construct: from tissue
T3 sequence (Q60492 whole entry): as above
Experimental: as §1

sigma-1 receptor [2] = target: T4, sigma-1 receptor (Cavia porcellus, UniProt Q60492); test: Sigma-1 competitive binding, (+)-[3H]pentazocine, guinea pig liver membranes (Example 6); design: from tissue; host or cells: guinea pig liver membranes;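 note: compounds tested over serial concentrations, 45 min incubation at 30 °C with membrane preparations, read-out is displacement of bound radioligand from the receptor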
T4 sequence (Q60492 whole entry): as above

sigma-1 receptor [3] = target: T4, sigma-1 receptor; test: Affinity for the sigma-1 receptor (Table 3); assay type: binding; design: from tissue; settings: read-out: Sigma-1 KD
sigma-2 receptor = target: T5, sigma-2 receptor (Rattus norvegicus, UniProt Q5U3Y7); test: Sigma-2 competitive binding, [3H]-DTG with (+)-pentazocine, rat liver membranes (Example 6); design: from tissue; host or cells: rat liver membranes
T5 sequence (Q5U3Y7 1-176): T1 sequence (Q5U3Y7 1-176)
Experimental: Minced frozen rat livers or guinea pig livers (65 g) were thawed in 100 mL homogenization buffer (10 mM phosphate buffer pH 7.4 containing 0.32M sucrose, 1 M MgSO4, 0.5 M EGTA, 1 mM phenylmethylsulphonyl fluoride (PMSF), 10 μg/mlleupeptin, 1 μg/ml pepstatin A, 10 μg/ml p-toluenesulfonyl-L-arginine methyl ester (TAME) and then homogenized on ice with a Brinkman polytron homogenizer (setting 6, 4 bursts of 10 second each) followed by a glass homogenizer (Teflon pestle by 6 slow passes at 3,000 rpm). The homogenized tissues were then centrifuged at 17,000 g for 10 minutes. The supernatants were re-centrifuged at 100,000 g for 1 hour. The microsomal pellets were resuspended in homogenization buffer, snap frozen with dry ice-ethanol, and stored at −80° C. at a final protein concentration of 20 mg/mL.
as §1

tumor cell lines = test: Cytotoxicity assays, various tumor cell lines (statements in words); assay type: cell-based, human
Experimental: Because sigma-1 receptors are overexpressed in numerous tumor cell lines, which include breast cancer, lung carcinoma, renal carcinoma, colon carcinoma, sarcoma, brain tumors, melanoma, glioblastoma, neuroblastoma, and prostate cancer, the ability of the compounds to inhibit the growth of various tumor cell lines were tested.
Multi-plex cytotoxicity assays were performed by the Keck-UWCCC Small Molecule Screening Facility (Madison, Wis.). Specific methodology can be found online at http://hts.wisc.edu/Resources.htm#mpa.

[4] = guinea pig liver membranes, n = 3, read-out: Sigma 1 KD values
[5] = rat liver membranes, n = 3, read-out: Sigma2 KD values

Q: With `CCCCCCCCCCCCNCCCc1ccccc1` [Compound 1e, N-(3-Phenylpropyl)dodecan-1-amine] as the compound, how does the Ki (σ-2 Sites) read?
A: The Ki was 2.1 µM.

Q: And the Ki ([1]; [3H]-(+)-pentazocine)?
A: The Ki was 0.0632 µM.

Q: What about the Ki (σ-1 Sites) of the same compound?
A: Its Ki is 5.3 µM.

Q: Which Kd (sigma-1 receptor [2]; [4]) does the source give for `CN(C)CCc1c[nH]c2ccccc12` [Compound 1] here?
A: The Kd was > 50000 µM.

Q: `CCCN(CCCc1ccc(F)cc1)Cc1ccc(N=[N+]=[N-])c(I)c1` [Compound 15] was tested. Which “Ratio (σ2/σ1)” value (sigma-1 receptor [2]) did it give?
A: Its value is 570.8 ^.

Q: With `CCCCCN` [Amylamine] as the compound, how does the Ki ([1]; [3H]-(+)-pentazocine 10 nM) read?
A: The Ki was 167 ± 35.2 µM.

Q: `CCCCCCCCCCCCCCCCCCNCCCc1ccccc1` [Compound 1g, N-(3-Phenylpropyl)octadecan-1-amine] was tested. Which Ki (σ-2 Sites) did it give?
A: Its Ki is 19.9 µM.

Q: What about the Ki ([1]; [3H]-(+)-pentazocine) of the same compound?
A: Its Ki is 0.0422 µM.

Q: And the Ki (σ-1 Sites)?
A: The Ki was 34.4 µM.

Q: What about the “σ-1 selectivity σ-2 Ki/σ-1 Ki” value (σ-1 Sites) of the same compound?
A: Its value is 0.7.

Q: With `CCCCN(CCCC)CCCc1ccc([N+](=O)[O-])cc1` [HD2] as the compound, how does the Kd (sigma-1 receptor [3]) read?
A: Its Kd is 0.00036 µM.

Q: For `CCCN(CCCc1ccc(F)cc1)Cc1ccc(N)c(I)c1` [Compound 14, N-Propyl-N-(4-amino-3-iodo-benzyl)-3-(4-fluorophenyl)propylamine], which “Ratio (σ2/σ1)” value (sigma-1 receptor [2]) is on record?
A: Its value is 0.3389.

Q: What about the Kd (sigma-1 receptor [2]; [4]) of the same compound?
A: The Kd was 393 µM.

Q: What about the Kd (sigma-2 receptor; [5]) of the same compound?
A: The Kd was 133 µM.

Q: For `CCCN(CCCc1ccc([N+](=O)[O-])cc1)CCc1ccc(N)cc1` [HD4], which Kd (sigma-1 receptor [3]) is on record?
A: Its Kd is 0.006 µM.

Q: Which Ki ([1]; [3H]-(+)-pentazocine 10 nM) does the source give for `CCCCCCCCN` [Octylamine] here?
A: The Ki was 5.6 µM and 6 µM.

Q: `CCCCCCCCN(CCCCCCCC)CCCc1ccc(F)cc1` [Compound 8, N,N-Dioctyl-3-(4-fluorophenyl)propylamine] was tested. Which “Ratio (σ2/σ1)” value (sigma-1 receptor [2]) did it give?
A: The value was 2.49.

Q: What about the Kd (sigma-2 receptor; [5]) of the same compound?
A: The Kd was 1.65 µM.

Q: Which Ki (σ-2 Sites) does the source give for `CCCCNCCCc1ccc([N+](=O)[O-])cc1` [Compound 1b, N-(3-(4-Nitrophenyl)propyl)butan-1-amine] here?
A: The Ki was 0.022 µM.

Q: And the Ki ([1]; [3H]-(+)-pentazocine)?
A: The Ki was 0.02 µM.

Q: What about the Ki (σ-1 Sites) of the same compound?
A: Its Ki is 0.003 µM.

Q: And the “σ-1 selectivity σ-2 Ki/σ-1 Ki” value (σ-1 Sites)?
A: Its value is 7.

Q: `CCCCCCCCCCCCN` [Dodecylamine] was tested. Which Ki ([1]; [3H]-(+)-pentazocine 10 nM) did it give?
A: The Ki was 0.18 µM and 0.2 µM.

Q: What does the source list for `CCCCCCCCCCCCCCCCCCNCCCc1ccc([N+](=O)[O-])cc1` [Compound 1h, N-(3-(4-Nitrophenyl)propyl)octadecan-1-amine]?
A: Ki (σ-2 Sites): 8.83 µM; Ki ([1]; [3H]-(+)-pentazocine): 0.0415 µM; Ki (σ-1 Sites): 26.9 µM; σ-1 selectivity σ-2 Ki/σ-1 Ki (σ-1 Sites): 0.3

Q: With `CCCCNCc1ccc([N+](=O)[O-])cc1` [Compound 16, N-Butyl-N-4-nitrobenzylamine] as the compound, how does the “Ratio (σ2/σ1)” value (sigma-1 receptor [2]) read?
A: The value was 1.4622.

Q: What about the Kd (sigma-1 receptor [2]; [4]) of the same compound?
A: The Kd was 1.15 µM.

Q: And the Kd (sigma-2 receptor; [5])?
A: The Kd was 1.68 µM.

Q: Which Ki (σ-2 Sites) does the source give for `CCCCCCCCCCCCNCCCc1ccc([N+](=O)[O-])cc1` [Compound 1f, N-(3-(4-Nitrophenyl)propyl)dodecan-1-amine] here?
A: Its Ki is 2.38 µM.

Q: And the Kd (sigma-1 receptor [3])?
A: Its Kd is 0.00039 µM.

Q: And the Ki ([1]; [3H]-(+)-pentazocine)?
A: Its Ki is 0.0318 µM.

Q: And the Ki (σ-1 Sites)?
A: The Ki was 5.17 µM.

Q: And the “cytotoxicity / tumor cell growth inhibition” value (tumor cell lines)?
A: The value was “remarkable activity for inhibiting tumor growth”.

Q: Which Ki (σ-2 Sites) does the source give for `CCCCCCCNCCCc1ccc([N+](=O)[O-])cc1` [Compound 1d, N-(3-(4-Nitrophenyl)propyl)heptane-1-amine] here?
A: The Ki was 0.011 µM.

Q: And the Kd (sigma-1 receptor [3])?
A: Its Kd is 0.0057 µM.

Q: What about the Ki ([1]; [3H]-(+)-pentazocine) of the same compound?
A: Its Ki is 0.0075 ± 0.0012 µM.

Q: And the Ki (σ-1 Sites)?
A: The Ki was 0.01 µM.

Q: What about the “σ-1 selectivity σ-2 Ki/σ-1 Ki” value (σ-1 Sites) of the same compound?
A: Its value is 1.

Q: What about the “cytotoxicity / tumor cell growth inhibition” value (tumor cell lines) of the same compound?
A: The value was “remarkable activity for inhibiting tumor growth”.

Q: `CCCNCCc1ccc(F)cc1` [Compound 9] was tested. Which Kd (sigma-1 receptor [2]) did it give?
A: Its Kd is 0.091 µM.

Q: And the “Ratio (σ2/σ1)” value (sigma-1 receptor [2])?
A: The value was 2.53.

Q: What about the Kd (sigma-2 receptor) of the same compound?
A: The Kd was 0.23 µM.
